Experimental data taken from BigSolDB 2.1.

Clc1cccnc1Cl
solubility (mole fraction)
Conditions	278.15 K	283.15 K	288.15 K	293.15 K	298.15 K	303.15 K	308.15 K	313.15 K
in 1,4-dioxane	–	–	0.241	0.285	0.332	0.382	0.442	0.514
in acetonitrile	0.061	0.0806	0.108	0.137	0.178	0.23	0.295	0.389
in cyclohexane	–	0.0334	0.045	0.061	0.0796	0.106	0.145	0.187
in dichloromethane	0.213	0.238	0.27	0.304	0.346	0.386	0.432	0.489
in ethanol	0.0314	0.0418	0.0558	0.071	0.0902	0.115	0.145	0.188
in ethyl acetate	0.166	0.194	0.223	0.259	0.302	0.349	0.398	0.46
in isobutanol	0.0394	0.0507	0.0654	0.0836	0.108	0.14	0.18	0.232
in isopropanol	0.032	0.0401	0.0532	0.0687	0.0895	0.117	0.154	0.2
in methanol	0.0181	0.0259	0.0362	0.0505	0.0676	0.0943	0.129	0.178
in methyl acetate	0.146	0.172	0.203	0.237	0.28	0.321	0.374	0.425
in n-butanol	0.0489	0.0607	0.0798	0.0983	0.123	0.155	0.197	0.249
in n-butyl acetate	0.185	0.213	0.246	0.282	0.324	0.372	0.424	0.487
in n-hexane	0.0154	0.0216	0.029	0.0387	0.0516	0.0684	0.0906	0.123
in n-propanol	0.0378	0.0479	0.0606	0.0804	0.1	0.129	0.164	0.211
